≈ marks a conversion by molar mass, not a printed value.
Columns and labels:
Assay type in all cases: cell-based
A.fumigatus = assay: Disc diffusion assay
Description: (§1) Pathogenic strains of fungi were obtained from the Mycology Department of Vallabhbhai Patel Chest Institute, Delhi. All the strains were grown on Sabouraud dextrose agar at 37°C. The conidia form these cultures were harvested and suspended in Sabouraud maltose broth. The number of conidia was counted using haemocytometer and their number in the suspension was adjusted to as per need of the experiment.
(§2) The disc diffusion test was performed as per described in the section of details of invention. Amphotericin B 1.25 µg/disc was used in assay as positive control standard drug. Additional discs impregnated with equivalent amount of solvent were also used in the assay as negative controls (Fig: 5). […] Table 2: Antifungal activity of compound by disc diffusion method
The potency of the compound was determined with the help of standard curve constructed using amphotericin B as standard drug against A.fumigatus. Standard curve was prepared according to method given in the Indian Pharmacopoeia. The corrected values of diameter of zone of inhibition along with lowest and highest values were determined. These values were plotted on semilog paper to prepare standard curve. The value of diameter of zone of inhibition obtained for compound was put into the standard curve and corresponding dose producing the effect equivalent to amphotericin B was determined to find out the potency of the compound (Fig: 6).

A. flavus = assay: Disc diffusion assay; conditions: Aspergillus flavus, 48 hrs, read-out: Diameter of zone of inhibition
Description: as §1, §2

A.niger = assay: Disc diffusion assay; conditions: 48 hrs
Description: as §1, §2

Aspergillus species = assay: Spore germination inhibition assay; conditions: percent spore germination inhibition, 10 hrs at 37° C
Description: as §1
The modified spore germination inhibition assay was performed as described earlier (Sureder P. and Janaiah C., 1987, Ind. J. Expt. Biol., 25, 233-234). The fungal species were grown on Sabouraud dextrose agar plates at 37°C for 96 h. […] The conidia were counted and their number in the suspension was adjusted to 1x10^4 per ml. The standard drug Amphotericin B and test samples were initially dissolved in minimal quantity of dimethylsulfoxide (DMSO) and then diluted with Sabouraud dextrose medium. […] The number of germinated and non-germinated spores was counted. The percent spore germination inhibition (PSGI) was calculated using following formula PSGI = 100-(No.of spores germinated in drug treated well)/(No.of spores germinated in control well) [formula] […]
The spore germination inhibition assay was performed to evaluate the activity of the compound. […] The number of germinated and non-germinated spores was counted and the percent spore germination inhibition (PSGI) was calculated. […]

RAW cells = test system: RAW cells
Description: The in vitro toxicity of the active molecule was studied by MTT assay using RAW cells (Mossman, T., 1983, J. Immunol. Methods, 65, 55-63).
The stock culture of RAW cells was obtained from National Facility for Cell and Tissue Culture, Pune. Cells were maintained in RPMI - 1640 medium supplemented with glutamine (2.3 gm/L), fetal calf serum (10% v/v) and gentamycin (50.0 mg/L) at 37°C in Nuair IR Autoflow water Jacketed carbon dioxide incubator.
The stock solution of the compound was prepared by dissolving 2.5 mg of the purified compound in minimum amount of DMSO and then diluted with double distilled water to make the final volume 1.0-ml. The different concentrations ranging from 1250.0 µg/ml to 19.5 µg/ml were tested in the cytotoxicity assay.
The cells were harvested at the log phase of growth confluency from the flask. The homogeneous suspension of cells was prepared in 2.0 ml of culture medium. The number of cells in the suspension was counted using a hemocytometer and the cell suspension was diluted in such a way so as to obtain 5x10^7 viable cells per ml. The viability of the cells was checked with trypan blue dye exclusion test. The cytotoxicity assay was performed in 96 wells flat bottom tissue culture plates (Nunc Nunclon). The cells ([…]) in 100.0 µl volume were seeded into each well. The plate was incubated at 37 °C in atmosphere of 5% (v/v) CO2 for 8 h. The wells were examined microscopically for the formation of monolayer of the cells. Various concentrations ranging from 1250.0 µg/ml to 19.5 µg/ml of the compound PC-1 (metelatropinyl ester) were added to the monolayer of cells. In +ve control wells, a known cytotoxic protein obtained from A. fumigatus, was used. […] After lysis of the cells, the plates were read at 540 nm using plate reader (Spectra Max 190, Molecular Device).
The toxicity of the compound was expressed as percentage with respect to that obtained in -ve control sample. The percent cytotoxicity was calculated using the formula given below. % Cytotoxicity = (OD in-ve control-OD in the test)/(OD in-ve control) × 100 [formula] […]

In the case of `CCCCC(=O)OC(C)CC1NCC(C)=C1C` (stereo not drawn) [PC-1, 2-(3,4-dimethyl-2,5-dihydro-1H-pyrrol-2-yl)-1-methylethyl pentanoate], the “amount of amphotericin B producing an equivalent diameter of zone of inhibition” value (A.fumigatus; 10 µg/disc of the compound, standard curve with amphotericin B) is reported as 2.67 µg, the zone of inhibition at 5 µg/disc (A.fumigatus; Aspergillus fumigatus, 5.0 µg/disc, 48 hrs, read-out: Diameter of zone of inhibition) is reported as 6.25 mm and the zone of inhibition at 10 µg/disc (A.fumigatus; Aspergillus fumigatus, 10.0 µg/disc, 48 hrs, read-out: Diameter of zone of inhibition) is reported as 8.5 mm. For the same compound, the zone of inhibition at 20 µg/disc (A.fumigatus; Aspergillus fumigatus, 20.0 µg/disc, 48 hrs, read-out: Diameter of zone of inhibition) was 9.25 mm, the “less potent as compared to amphotericin B” value (A.fumigatus; disc diffusion standard curve) was 3.74 time and the zone of inhibition at 5 µg/disc (A. flavus; 5.0 µg/disc) was 6.15 mm. The zone of inhibition at 10 µg/disc (A. flavus; 10.0 µg/disc) was 8.1 mm, the zone of inhibition at 20 µg/disc (A. flavus; 20.0 µg/disc) was 9 mm and the “Diameter of zone of inhibition” value (A.niger; 5.0 µg/disc) was 6.40 mm. It also gave a zone of inhibition at 5 µg/disc (A.niger; Aspergillus niger, 5.0 µg/disc, read-out: Diameter of zone of inhibition) of 6.4 mm, a zone of inhibition at 10 µg/disc (A.niger; Aspergillus niger, 10.0 µg/disc, read-out: Diameter of zone of inhibition) of 8.6 mm and an MIC (Aspergillus species) of 87.5 µg/mL (≈ 366 µM). The “concentration completely non-toxic to the cells” value (RAW cells) was “up to 312.5 µg/ml”, the “CT50 (dose cytotoxic to 50% of the cells)” value (RAW cells; RAW cells, MTT, 12 h) was 889.2 µg/mL and the “less cytotoxic than the standard antifungal drug such as Amphotericin B” value (RAW cells; comparison with Amphotericin B) was 57.8 times.

From patent EP1487791B1, “A NOVEL ANTIFUNGAL MOLECULE 2-(3,4-DIMETHYL-2,5-DIHYDRO-1H-PYRROL-2-YL)- METHYLETHYL PENTANOATE” (priority 2002, dated 2003)
